# Columns and labels:
# S. aureus = assay: disk-diffusion assay of penicillin-loaded polymers; format: cell-based; details: Staphylococcus aureus
# Protocol: FIG. 8B is a 3-D plot of inhibition zones of penicillin, penicillin loaded cobaltocenium-containing polymers (PCo-Peni), and penicillin loaded cobaltocenium-boronic acid-containing copolymers (PCo-PPB-Peni) against six strains of bacteria using different amounts of penicillin (A: 5 μg penicillin-G alone, B: PCo-Peni with 5 μg penicillin-G, C: PCo-PPB-Peni with 5 μg penicillin-G, D: 10 μg penicillin-G, E: PCo-Peni with 10 μg penicillin-G, F: PCo-PPB-Peni with 10 μg penicillin-G).
# For the bacteria, a single colony was inoculated in 30 mL tryptic soy broth (TSB) at 37° C. for 24 hours, shaking at 190 rpm/min. All bacteria were grown to an optical density of about 1.00 (OD600=1.00) for further use. To conduct the agar disk-diffusion assays, actively-growing cultures of each bacterial strain on mannitol salt agar (MSA) were inoculated on tryptic soy broth (TSB) agar plates. The bacterial growth culture (cell concentrations were 1.0×10^6 CFU/mL) was diluted from 10 μL to 1 mL in tryptic soy broth (TSB) and 100 μL was spread on TSB agar plates to form a bacterial lawn covering the plate surface. Then, 6 mm (diameter) filter discs were added to the plate surface, aqueous cobaltocenium-boronic acid-containing copolymers (PCo-PPB) at different concentrations were added to disks, and the plates were incubated at 28° C. for 18 h. […]
# [1] = tested on: six strains of bacteria (S. aureus, E. faecalis, E. coli, P. vulgaris, P. aeruginosa and K. pneumoniae); assay: LIVE/DEAD bacteria viability assay by CSLM; format: cell-based; details: 18-hour incubation at 37° C.; penicillin-G 5, PCo-PPB 11 μg, PCo-PPB-Peni 16 μg per 1 mL
# Protocol: One (1) mL of active bacterial stock of various strains was introduced to 5 penicillin-G, 11 μg cobaltocenium-boronic acid-containing copolymer, and 16 μg penicillin-loaded cobaltocenium-boronic acid-containing copolymers (penicillin-G weight: 5 m), respectively. An untreated cell suspension was used as the control. Following 18-hour incubation at 37° C., 1 μL LIVE/DEAD BacLight (Bacterial Viability Kit; INVITROGEN INC.®) was added to the incubation solution. After incubation for 15 minutes, cells were imaged using a LEICA TCS SP5® Laser Scanning Confocal Microscope with a 63X oil immersion lens.
compound,measurement,setting,value
CC1(C)S[C@@H]2[C@H](NC(=O)Cc3ccccc3)C(=O)N2[C@H]1C(=O)O [penicillin-G],zone of inhibition at 5 µg/disc,S. aureus; 5 μg penicillin-G,7 mm
same,zone of inhibition at 10 µg/disc,S. aureus; 10 μg penicillin-G,14.5 mm
same,killing of bacteria (LIVE/DEAD BacLight),[1],not effective at killing bacteria

# Source: patent publication US20180250328A1, “Metallocene-boronic acid-containing compounds and copolymers as antimicrobial agents” (University of South Carolina, priority 2017, published 2018)
